Assay results as given in patent US8604085B2, “Bupropion hydrobromide polymorphs” (Valeant International Bermuda, priority 2008, dated 2013).
Read-outs that look alike come from different tables or passages of the source.

What was measured:
Format in all cases: physicochemical
[1] = Precipitation by anti-solvent (ethyl acetate) addition at room temperature
Text: The samples were filtered and analyzed by X-ray diffraction. Form I converts into Form II using chloroform, and also with benzyl alcohol. The other experiments yield only Form I. See Table 54 for Form I precipitation results by anti-solvent addition.

[2] = Qualitative solubility screening; settings: thermodynamic from solid, 50 mg in 4 mL, read-out: Solubility at Room Temp (RT)
Experimental: Bupropion hydrobromide (50 mg) was introduced in 4 mL of solvent under stirring for about 1 hour at room temperature. See Table 41 for the qualitative solubility data.

[3] = Comparison of the stability of several bupropion salts in open and closed vials at about 40 degrees C. and about 75% relative humidity (HPLC); settings: about 40 degrees C., about 75% relative humidity, various periods of time
Experimental: A comparison of the stability of several bupropion salts, including the hydrobromide, hydrochloride, maleate, tosylate, fumarate, succinate, tartrate and citrate salts, was performed by placing these salts in both open and closed vials in a stability chamber kept at about 40 degrees C. and about 75% relative humidity for various periods of time (e.g. 10 days, 13 days, 14 days, 20 days, 24 days, or 32 days). The stability of the salts was evaluated based on the formation of the main degradation products as determined by HPLC analysis and the % potency (or assay) of the API, after specific time periods in the stability chamber. The effect of the addition of solvents, such as water, ethanol and isopropyl alcohol, was also studied.

[4] = Release of bupropion base from the salt
Experimental: It was previously observed that when 150 mg of bupropion HCl was tested for its release of bupropion, the base value that was released was 130 mg. However, when 150 mg of bupropion HBr was tested, the base value released was only 112 mg. Thus, the amount of bupropion HBr had to be increased in order to increase the base value from 112 mg to 130 mg, which was the target.

Br.CC(NC(C)(C)C)C(=O)c1cccc(Cl)c1 (single isomer, unassigned) [Form I]
Precipitation Result ([1]; solvent 1-Butanol): Form I | Precipitation Result ([1]; solvent 1-Methyl-2-Pyrrolidone): Form I | Precipitation Result ([1]; solvent 1-Propanol): Form I | Precipitation Result ([1]; solvent 2-Methoxy Ethanol): Form I | Precipitation Result ([1]; solvent 2-Methyl-1-Propanol): Form I | Precipitation Result ([1]; solvent 2-Propanol): Form I | Precipitation Result ([1]; solvent Benzyl Alcohol): Form II | Precipitation Result ([1]; solvent Chloroform): Form II | Precipitation Result ([1]; solvent Dichloromethane): Form I | Precipitation Result ([1]; solvent Dimethylformamide): Form I | Precipitation Result ([1]; solvent Ethanol): Form I | Precipitation Result ([1]; solvent Methanol): Form I

Br.CC(NC(C)(C)C)C(=O)c1cccc(Cl)c1 (stereo not drawn) [Bupropion hydrobromide, 3′-chloro-2-t-butylamino-1-propiophenone hydrobromide]
solubility ([2]; organic solvent or mixture, solvent 1,2-Dimethoxy Ethane): < 12.5 mg/mL | solubility ([2]; organic solvent or mixture, solvent 1-Butanol): > 12.5 mg/mL | solubility ([2]; organic solvent or mixture, solvent 1-Methyl-2-Pyrrolidone): > 12.5 mg/mL | solubility ([2]; organic solvent or mixture, solvent 1-Octanol): < 12.5 mg/mL | solubility ([2]; organic solvent or mixture, solvent 1-Propanol): > 12.5 mg/mL | solubility ([2]; organic solvent or mixture, solvent 2-Methoxy Ethanol): > 12.5 mg/mL | solubility ([2]; organic solvent or mixture, solvent 2-Methyl-1-Propanol): > 12.5 mg/mL | solubility ([2]; organic solvent or mixture, solvent 2-Propanol): > 12.5 mg/mL | solubility ([2]; organic solvent or mixture, solvent 3-Pentanone): < 12.5 mg/mL | solubility ([2]; organic solvent or mixture, solvent 4-Methyl-2-Pentanone): < 12.5 mg/mL | solubility ([2]; organic solvent or mixture, solvent (±)2-Butanol): < 12.5 mg/mL | solubility ([2]; organic solvent or mixture, solvent Acetone): < 12.5 mg/mL | solubility ([2]; organic solvent or mixture, solvent Acetonitrile): > 12.5 mg/mL | solubility ([2]; organic solvent or mixture, solvent Benzonitrile): < 12.5 mg/mL | solubility ([2]; organic solvent or mixture, solvent Benzyl Alcohol): > 12.5 mg/mL | solubility ([2]; organic solvent or mixture, solvent Chloroform): > 12.5 mg/mL | solubility ([2]; organic solvent or mixture, solvent Cyclohexane): < 12.5 mg/mL | solubility ([2]; organic solvent or mixture, solvent Dichloromethane): > 12.5 mg/mL | solubility ([2]; organic solvent or mixture, solvent Diethyl Carbonate): < 12.5 mg/mL | solubility ([2]; organic solvent or mixture, solvent Diethyl Ether): < 12.5 mg/mL | solubility ([2]; organic solvent or mixture, solvent Dimethil sulfoxyde): > 12.5 mg/mL | solubility ([2]; organic solvent or mixture, solvent Dimethyl Formamide): > 12.5 mg/mL | solubility ([2]; organic solvent or mixture, solvent Dioxane): < 12.5 mg/mL | solubility ([2]; organic solvent or mixture, solvent Ethanol): > 12.5 mg/mL | solubility ([2]; organic solvent or mixture, solvent Ethyl Acetate): < 12.5 mg/mL | solubility ([2]; organic solvent or mixture, solvent Ethyl Benzoate): < 12.5 mg/mL | solubility ([2]; organic solvent or mixture, solvent Ethyl Formate): < 12.5 mg/mL | solubility ([2]; organic solvent or mixture, solvent Iso-Propyl-Ether): < 12.5 mg/mL | solubility ([2]; organic solvent or mixture, solvent Isopropyl Acetate): < 12.5 mg/mL | solubility ([2]; organic solvent or mixture, solvent Mesitylene): < 12.5 mg/mL | solubility ([2]; organic solvent or mixture, solvent Methanol): > 12.5 mg/mL | solubility ([2]; organic solvent or mixture, solvent Methyl Benzoate): < 12.5 mg/mL | solubility ([2]; organic solvent or mixture, solvent Methyl Ethyl Ketone): < 12.5 mg/mL | solubility ([2]; organic solvent or mixture, solvent Methyl-Cyclohexan): < 12.5 mg/mL | solubility ([2]; organic solvent or mixture, solvent Nitrobenezene): < 12.5 mg/mL | solubility ([2]; organic solvent or mixture, solvent Nitromethane): > 12.5 mg/mL | solubility ([2]; organic solvent or mixture, solvent Propyl Acetate): < 12.5 mg/mL | solubility ([2]; organic solvent or mixture, solvent Tert-Butanol): < 12.5 mg/mL | solubility ([2]; organic solvent or mixture, solvent Tetrahydrofuran): < 12.5 mg/mL | solubility ([2]; organic solvent or mixture, solvent Toluene): < 12.5 mg/mL | solubility ([2]; organic solvent or mixture, solvent n-Hexan): < 12.5 mg/mL | solubility ([2]; organic solvent or mixture, solvent n-Hexane): < 12.5 mg/mL | solubility ([2]; organic solvent or mixture, solvent p-Xylene): < 12.5 mg/mL | solubility ([2]; organic solvent or mixture, solvent t-Butyl Methyl Ether): < 12.5 mg/mL | solubility ([2]; water, solvent Water): > 12.5 mg/mL | amount of degradation products compared with other bupropion salts [3]: least amount of degradation products | base value that was released ([4]; 150 mg of the salt tested): 112 mg | base value that was released ([4]; 174 mg of the salt tested): 130 mg
